According to US10646553B2, “Use of recombinant human calcineurin B subunit” (HAIKOU QILI PHARMACEUTICAL CO., LTD., priority 2015, dated 2020):

Experiments:
[1] = system: transplantation tumor of human gastric cancer cell MGC-803 carcinoma in situ; assay: Bioluminescence detection (IVIS small animal live imaging) and necropsy of orthotopic MGC-803 tumour in nude mice; type: in vivo, BALB/c nude mice
Source text: (§1) In one embodiment of the present invention, according to the “Technical Guidelines for Non-Clinical Studies of Cytotoxic Antitumor Drugs” and “Guidelines for Pharmacodynamics of Antitumor Drugs”, IVIS Kinetics (a small animal live imaging system) was used to dynamically analyze the therapeutic effect of rhCNB for injection on the BALB/c nude mice bearing the human gastric cancer cell MGC-803 carcinoma in situ. Firstly, a BALB/c nude mouse model bearing subcutaneous transplantation tumor of human gastric cancer cell MGC-803 was established, and then a BALB/c nude mouse model bearing transplantation tumor in situ of human gastric cancer cell MGC-803 was established. […] Each experimental group is administered once daily for 15 consecutive days, except that the positive control high-dose administration group of cisplatin for injection is administered for 5 days. […] Animals were examined once using Caliper IVIS Kinetics (small animal live imaging system) before the first administration (on the administration day), every other 3 days after the first administration and on the 7th day after the last administration, respectively, and body weight was measured before each examination. At the end of the last examination, animals were sacrificed and roughly necropsied, and organs inoculated with tumor (including tumor tissues) were removed for pathological examination and immunohistochemical assay of apoptosis.
Human gastric cancer cell MGC-803 was routinely cultured in vitro, digested, centrifuged, and then prepared into a cell suspension with a concentration of approximately 1×10^7 cells/mL. The cells were inoculated subcutaneously into the right armpit of mice at an amount of 0.2 mL/mouse.
Well-grown subcutaneously transplanted tumors were removed and cut into tumor tissue blocks with a size of approximately 2×2×1 mm for use. Animals to be inoculated were feed 12 hours before surgical operation and subjected to gas anesthesia with isoflurane. The anaesthetized animals were placed in supine position. The skin 2˜5 mm below the xiphoid process was cut horizontally layer-by-layer on the left side to give an opening of about 1 cm. Stomach was pull out gently using a pincette and exposed. The tumor tissue block was placed above the side near the pylorus of greater curvature of stomach of the nude mice with surgical suture #1 by “purse-string suture”, so that the tumor tissue block was wrapped therein. The skin was sutured layer by layer and disinfected by Entoiodine, and then the animals were returned back to the cage for normal feeding. 7 days after surgery, the animals were examined using the small animal live imaging system, grouped, and administrated.
The route for administration was by tail vein injection.
Animals were detected once using Caliper IVIS Kinetics small animal live imaging system at the following time point: before the first administration (on the administration day), every other 3 days after the first administration, and on the 7th day after the last administration, respectively. The body weight was measured before each detection. A substrate solution (with a concentration of 15 mg/mL) was injected intraperitoneally according to 0.1 mL/10 g body weight and a bioluminescence detection was performed 10˜15 min after injection.
The data obtained from the experiments were statistically analyzed using SPSS analysis software, and the significance of difference between the administration groups and the vehicle control group, and among each administration group was compared.

[2] = Survival of tumour-bearing animals during the experiment; type: in vivo, BALB/c nude mice
Source text: as §1
The high-, medium-, low-dose groups and progressively increasing-dose group of the test sample were administered once daily for 15 consecutive days;

[3] = X, 2 mg/kg once daily 15 d, d12
[4] = X, 2 mg/kg once daily 15 d, d15
[5] = SD, low-dose 1 mg/kg once daily 15 d, d3
[6] = SD, low-dose 1 mg/kg once daily 15 d, d6
[7] = SD, low-dose 1 mg/kg once daily 15 d, d9
[8] = SD, low-dose 1 mg/kg once daily 15 d, d12
[9] = SD, low-dose 1 mg/kg once daily 15 d, d15
[10] = SG, high-dose 5 mg/kg once daily 5 d, d3
[11] = SG, high-dose 5 mg/kg once daily 5 d, d6

CC[C@@]1(O)C(=O)OCc2c1cc1n(c2=O)Cc2cc3cc(O)ccc3nc2-1 [hydroxycamptothecin for injection, hydroxycamptothecin]
0: Number of animals in which tumor is not detectable and not observed ([1]; X, 2 mg/kg once daily 15 d, d0) | Number of animals in which tumor is not detectable and not observed ([1]; X, 2 mg/kg once daily 15 d, d3) | Number of animals in which tumor is not detectable and not observed ([1]; X, 2 mg/kg once daily 15 d, d6) | Number of animals in which tumor is not detectable and not observed ([1]; X, 2 mg/kg once daily 15 d, d9) | Number of animals in which tumor is not detectable and not observed [1, 3] | Number of animals in which tumor is not detectable and not observed [1, 4] | Number of animals in which tumor is not detectable and not observed ([1]; X, 2 mg/kg once daily 15 d, recovery period d7)
(10): number of surviving animals ([2]; X, 2 mg/kg once daily 15 d, d0 before administration) | number of surviving animals ([2]; X, 2 mg/kg once daily 15 d, d3)
(9): number of surviving animals ([2]; X, 2 mg/kg once daily 15 d, d6) | number of surviving animals ([2]; X, 2 mg/kg once daily 15 d, d9) | number of surviving animals [2, 3] | number of surviving animals [2, 4]
(7): number of surviving animals ([2]; X, 2 mg/kg once daily 15 d, d21 (7th day after last administration))

N.N.[Cl][Pt][Cl] [cisplatin for injection, cisplatin]
sharp increase: bioluminescence detection data ([1]; positive control high-dose group 5 mg/kg, after the 6th day administration)
mainly due to drug toxicity: cause of death of the animals ([2]; during the experiment, preliminarily believed)
0: Number of animals in which tumor is not detectable and not observed ([1]; SD, low-dose 1 mg/kg once daily 15 d, d0) | Number of animals in which tumor is not detectable and not observed [1, 5] | Number of animals in which tumor is not detectable and not observed [1, 6] | Number of animals in which tumor is not detectable and not observed [1, 7] | Number of animals in which tumor is not detectable and not observed [1, 8] | Number of animals in which tumor is not detectable and not observed [1, 9] | Number of animals in which tumor is not detectable and not observed ([1]; SD, low-dose 1 mg/kg once daily 15 d, recovery period d7) | Number of animals in which tumor is not detectable and not observed ([1]; SG, high-dose 5 mg/kg once daily 5 d, d0) | Number of animals in which tumor is not detectable and not observed [1, 10] | Number of animals in which tumor is not detectable and not observed [1, 11] | Number of animals in which tumor is not detectable and not observed ([1]; SG, high-dose 5 mg/kg once daily 5 d, d9) | Number of animals in which tumor is not detectable and not observed ([1]; SG, high-dose 5 mg/kg once daily 5 d, d12) | Number of animals in which tumor is not detectable and not observed ([1]; SG, high-dose 5 mg/kg once daily 5 d, d15) | Number of animals in which tumor is not detectable and not observed ([1]; SG, high-dose 5 mg/kg once daily 5 d, recovery period d7)
(10): number of surviving animals ([2]; SD, low-dose 1 mg/kg once daily 15 d, d0 before administration) | number of surviving animals [2, 5] | number of surviving animals [2, 6] | number of surviving animals [2, 7] | number of surviving animals [2, 8] | number of surviving animals ([2]; SG, high-dose 5 mg/kg once daily 5 d, d0 before administration) | number of surviving animals [2, 10] | number of surviving animals [2, 11]
(9): number of surviving animals [2, 9]
(4): number of surviving animals ([2]; SD, low-dose 1 mg/kg once daily 15 d, d21 (7th day after last administration))
